Source: article PMC9021288 (Nature Communications, 2022)
Where “and” joins values, the source holds several entries; their conditions need not be identical. Equal values may be shown once.

Tests used:
human recombinant CYP3A4 = target: T1, human recombinant CYP3A4 (Homo sapiens, UniProt P08684); test: CYP reaction phenotyping; type: in vitro ADME; settings: for Compound remaining (0 min = 100): CYP3A4
T1 construct: purchased Bactosomes (assay run at Cyprotex)
Protocol: (§1) In vitro CYP reaction phenotyping was performed at Cyprotex (Alderly Park, United Kingdom). […] The remaining test compound at each time point was analyzed by LC-MS/MS.

human recombinant CYP1A2 = target: T2, human recombinant CYP1A2 (Homo sapiens, UniProt P05177); test: CYP reaction phenotyping; type: in vitro ADME
T2 construct: purchased Bactosomes (assay run at Cyprotex)
T2 sequence (P05177 1-516): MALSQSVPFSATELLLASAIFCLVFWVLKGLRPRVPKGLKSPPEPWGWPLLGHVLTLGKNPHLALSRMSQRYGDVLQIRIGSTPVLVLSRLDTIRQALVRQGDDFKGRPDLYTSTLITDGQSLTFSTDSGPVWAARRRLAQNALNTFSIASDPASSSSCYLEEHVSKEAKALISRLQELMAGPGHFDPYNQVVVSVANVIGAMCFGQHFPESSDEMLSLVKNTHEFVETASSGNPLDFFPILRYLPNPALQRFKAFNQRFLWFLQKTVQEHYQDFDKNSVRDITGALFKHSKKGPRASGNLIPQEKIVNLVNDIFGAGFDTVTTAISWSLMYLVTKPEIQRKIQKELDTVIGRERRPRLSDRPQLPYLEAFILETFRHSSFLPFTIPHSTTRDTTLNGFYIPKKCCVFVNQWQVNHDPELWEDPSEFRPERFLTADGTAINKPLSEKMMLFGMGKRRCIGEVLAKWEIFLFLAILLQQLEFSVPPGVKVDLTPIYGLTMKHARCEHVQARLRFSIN
Protocol: as §1

[1] = target: T3, human recombinant CYP2C19 (Homo sapiens, UniProt P33261); test: CYP reaction phenotyping; type: in vitro ADME; settings: for Compound remaining (0 min = 100): CYP2C19
T3 construct: purchased Bactosomes (assay run at Cyprotex)
T3 sequence (P33261 whole entry): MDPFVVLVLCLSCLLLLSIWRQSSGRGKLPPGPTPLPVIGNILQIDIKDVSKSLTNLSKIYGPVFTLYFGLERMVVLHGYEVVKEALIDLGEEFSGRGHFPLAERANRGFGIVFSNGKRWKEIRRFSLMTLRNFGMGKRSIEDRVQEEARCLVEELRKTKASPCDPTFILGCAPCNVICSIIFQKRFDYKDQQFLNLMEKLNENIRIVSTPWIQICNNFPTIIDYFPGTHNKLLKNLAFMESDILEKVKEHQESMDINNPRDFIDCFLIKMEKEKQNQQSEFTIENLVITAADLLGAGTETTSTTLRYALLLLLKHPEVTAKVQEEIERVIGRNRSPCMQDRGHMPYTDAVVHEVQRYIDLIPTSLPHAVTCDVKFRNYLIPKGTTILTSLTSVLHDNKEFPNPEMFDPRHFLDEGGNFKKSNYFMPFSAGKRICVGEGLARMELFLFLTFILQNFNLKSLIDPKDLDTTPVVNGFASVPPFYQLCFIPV
Protocol: as §1

human recombinant CYP2D6 = target: T4, human recombinant CYP2D6 (Homo sapiens, UniProt P10635); test: CYP reaction phenotyping; type: in vitro ADME
T4 construct: purchased Bactosomes (assay run at Cyprotex)
T4 sequence (P10635 whole entry): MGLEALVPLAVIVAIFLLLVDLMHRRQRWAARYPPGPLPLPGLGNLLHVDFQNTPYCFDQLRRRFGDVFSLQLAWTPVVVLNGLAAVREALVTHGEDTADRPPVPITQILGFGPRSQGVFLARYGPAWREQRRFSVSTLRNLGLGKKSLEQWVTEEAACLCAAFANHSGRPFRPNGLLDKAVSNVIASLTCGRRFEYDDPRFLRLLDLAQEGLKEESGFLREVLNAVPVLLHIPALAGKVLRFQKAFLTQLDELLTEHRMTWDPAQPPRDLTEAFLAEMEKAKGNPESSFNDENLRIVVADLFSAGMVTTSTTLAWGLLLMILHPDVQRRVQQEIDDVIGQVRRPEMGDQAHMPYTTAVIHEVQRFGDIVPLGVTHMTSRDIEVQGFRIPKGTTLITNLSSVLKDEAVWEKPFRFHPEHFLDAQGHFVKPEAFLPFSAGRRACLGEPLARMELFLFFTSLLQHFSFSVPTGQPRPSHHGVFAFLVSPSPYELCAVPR
Protocol: as §1

human recombinant CYP3A5 = target: T5, human recombinant CYP3A5 (Homo sapiens, UniProt P20815); test: CYP reaction phenotyping; type: in vitro ADME; settings: for Compound remaining (0 min = 100): CYP3A5
T5 construct: purchased Bactosomes (assay run at Cyprotex)
T5 sequence (P20815 whole entry): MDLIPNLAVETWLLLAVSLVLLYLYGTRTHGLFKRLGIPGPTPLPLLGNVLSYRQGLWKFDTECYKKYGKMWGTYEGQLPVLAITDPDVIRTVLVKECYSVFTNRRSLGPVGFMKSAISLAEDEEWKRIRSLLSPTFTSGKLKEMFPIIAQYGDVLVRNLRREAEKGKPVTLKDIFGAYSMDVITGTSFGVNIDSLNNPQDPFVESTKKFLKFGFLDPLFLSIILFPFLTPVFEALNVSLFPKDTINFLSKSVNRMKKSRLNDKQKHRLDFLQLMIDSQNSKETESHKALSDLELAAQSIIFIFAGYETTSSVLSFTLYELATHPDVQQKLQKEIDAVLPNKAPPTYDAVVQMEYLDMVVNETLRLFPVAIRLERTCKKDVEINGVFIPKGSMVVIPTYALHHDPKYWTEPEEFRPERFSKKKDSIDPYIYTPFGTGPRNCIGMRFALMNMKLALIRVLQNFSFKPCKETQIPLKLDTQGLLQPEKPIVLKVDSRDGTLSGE
Protocol: as §1

human recombinant CYP2C9 = target: T6, human recombinant CYP2C9 (Homo sapiens, UniProt P11712); test: CYP reaction phenotyping; type: in vitro ADME
T6 construct: purchased Bactosomes (assay run at Cyprotex)
T6 sequence (P11712 whole entry): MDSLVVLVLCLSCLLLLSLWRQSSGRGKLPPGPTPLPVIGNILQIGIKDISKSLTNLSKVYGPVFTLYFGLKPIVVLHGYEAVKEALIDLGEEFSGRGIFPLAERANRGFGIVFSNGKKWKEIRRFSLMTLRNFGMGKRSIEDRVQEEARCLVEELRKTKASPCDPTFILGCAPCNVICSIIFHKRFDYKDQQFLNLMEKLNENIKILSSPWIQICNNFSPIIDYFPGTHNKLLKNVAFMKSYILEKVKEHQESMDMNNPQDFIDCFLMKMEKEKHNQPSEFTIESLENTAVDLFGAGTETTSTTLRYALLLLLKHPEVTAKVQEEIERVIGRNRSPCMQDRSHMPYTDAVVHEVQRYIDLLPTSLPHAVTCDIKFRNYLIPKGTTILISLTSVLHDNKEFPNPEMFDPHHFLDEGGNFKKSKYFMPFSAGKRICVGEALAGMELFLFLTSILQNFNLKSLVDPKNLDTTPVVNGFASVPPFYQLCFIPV
Protocol: as §1

human recombinant CYP2C8 = target: T7, human recombinant CYP2C8 (Homo sapiens, UniProt P10632); test: CYP reaction phenotyping; type: in vitro ADME
T7 construct: purchased Bactosomes (assay run at Cyprotex)
T7 sequence (P10632 1-490): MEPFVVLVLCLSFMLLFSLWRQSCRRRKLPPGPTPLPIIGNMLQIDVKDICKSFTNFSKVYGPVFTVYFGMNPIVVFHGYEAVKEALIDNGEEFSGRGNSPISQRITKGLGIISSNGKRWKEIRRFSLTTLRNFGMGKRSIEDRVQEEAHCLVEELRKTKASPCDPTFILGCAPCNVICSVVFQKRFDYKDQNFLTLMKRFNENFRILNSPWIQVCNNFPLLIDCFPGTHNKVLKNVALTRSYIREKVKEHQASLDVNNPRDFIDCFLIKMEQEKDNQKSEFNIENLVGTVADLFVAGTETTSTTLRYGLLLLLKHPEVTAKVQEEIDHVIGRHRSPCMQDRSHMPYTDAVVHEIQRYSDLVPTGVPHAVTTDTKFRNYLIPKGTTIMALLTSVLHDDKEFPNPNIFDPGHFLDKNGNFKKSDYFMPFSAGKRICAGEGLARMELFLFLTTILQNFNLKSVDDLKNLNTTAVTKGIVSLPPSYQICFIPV
Protocol: as §1

[2] = tested on: P. falciparum NF54 sporozoites / liver stages; test: Liver-stage development in human primary hepatocytes; type: cell-based, Plasmodium falciparum; design: infected hepatocytes (Rep1, Rep2): unit not given here
Protocol: To assess parasite development in hepatocytes, cryopreserved human primary hepatocytes (Tebu-Bio lot: HC10-10) were thawed according to the manufacturer’s protocol and seeded (50,000 cells per well) in collagen-coated 96-well plates (Greiner). Cells were cultured at 37 °C in 5% CO2 and the medium was refreshed after 3 h and 24 h. Salivary glands from Anopheles stephensi mosquitoes were dissected to obtain NF54 sporozoites that were added (60,000 per well) to hepatocytes 48 h post-thawing. Plates were spun down and sporozoites were incubated with hepatocytes for 3 h. Subsequently, sporozoites were aspirated and compounds diluted in hepatocyte medium, were added to the hepatocytes (0.1% DMSO final concentration). Medium-containing compounds was refreshed daily for four days. Hepatocytes were fixed with ice-cold methanol and samples were blocked with 10% fetal bovine serum (FBS) in PBS. Samples were incubated with rabbit anti-HSP70 (1:75, StressMarq) in 10% FBS for 1-2 h followed by incubation with secondary goat anti-rabbit AlexaFluor 594 antibody (1:1000, Invitrogen) in 10% FBS for 30 min. Samples were washed with PBS containing 0.05% Tween 20 between different steps. Cells were imaged on the Biotek Cytation and images were analyzed automatically using FIJI software.

T1 sequence (P08684 whole entry): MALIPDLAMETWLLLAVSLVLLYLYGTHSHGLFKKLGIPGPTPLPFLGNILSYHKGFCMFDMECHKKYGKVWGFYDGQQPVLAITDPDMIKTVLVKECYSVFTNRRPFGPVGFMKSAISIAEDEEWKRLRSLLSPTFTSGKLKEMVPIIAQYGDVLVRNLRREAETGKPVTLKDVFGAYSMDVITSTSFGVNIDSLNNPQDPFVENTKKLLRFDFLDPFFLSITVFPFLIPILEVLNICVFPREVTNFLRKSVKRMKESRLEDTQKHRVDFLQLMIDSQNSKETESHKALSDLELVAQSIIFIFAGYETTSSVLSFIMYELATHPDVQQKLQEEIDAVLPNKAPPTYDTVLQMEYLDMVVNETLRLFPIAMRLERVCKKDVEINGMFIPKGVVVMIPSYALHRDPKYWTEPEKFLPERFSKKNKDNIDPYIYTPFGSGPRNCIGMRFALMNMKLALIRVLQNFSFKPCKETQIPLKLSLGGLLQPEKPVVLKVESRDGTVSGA

C[C@@H](CNC(=O)[C@H](O)C(C)(C)CO)NC(=O)c1cc(F)c(F)cc1F [MMV693183]
role in oxidative metabolism (human recombinant CYP3A4; 1 µM, 45 min): responsible for the oxidative metabolism | Compound remaining (0 min = 100) (human recombinant CYP3A4; Incubation time (minutes) 0): 100 | Compound remaining (0 min = 100) (human recombinant CYP3A4; Incubation time (minutes) 5): 101 | Compound remaining (0 min = 100) (human recombinant CYP3A4; Incubation time (minutes) 15): 94.1 | Compound remaining (0 min = 100) (human recombinant CYP3A4; Incubation time (minutes) 30): 90.1 | Compound remaining (0 min = 100) (human recombinant CYP3A4; Incubation time (minutes) 45): 91.5 | Compound remaining (0 min = 100) (human recombinant CYP1A2; Incubation time (minutes) 0): 100 | Compound remaining (0 min = 100) (human recombinant CYP1A2; Incubation time (minutes) 5): 98.3 | Compound remaining (0 min = 100) (human recombinant CYP1A2; Incubation time (minutes) 15): 100 | Compound remaining (0 min = 100) (human recombinant CYP1A2; Incubation time (minutes) 30): 98.6 | Compound remaining (0 min = 100) (human recombinant CYP1A2; Incubation time (minutes) 45): 102 | role in oxidative metabolism ([1]; 1 µM, 45 min, to a lower extent): responsible for the oxidative metabolism | Compound remaining (0 min = 100) ([1]; Incubation time (minutes) 0): 100 | Compound remaining (0 min = 100) ([1]; Incubation time (minutes) 5): 98.6 | Compound remaining (0 min = 100) ([1]; Incubation time (minutes) 15): 92.4 | Compound remaining (0 min = 100) ([1]; Incubation time (minutes) 30): 93.6 | Compound remaining (0 min = 100) ([1]; Incubation time (minutes) 45): 95.9 | Compound remaining (0 min = 100) (human recombinant CYP2D6; Incubation time (minutes) 0): 100 | Compound remaining (0 min = 100) (human recombinant CYP2D6; Incubation time (minutes) 5): 105 | Compound remaining (0 min = 100) (human recombinant CYP2D6; Incubation time (minutes) 15): 101 | Compound remaining (0 min = 100) (human recombinant CYP2D6; Incubation time (minutes) 30): 105 | Compound remaining (0 min = 100) (human recombinant CYP2D6; Incubation time (minutes) 45): 106 | role in oxidative metabolism (human recombinant CYP3A5; 1 µM, 45 min): responsible for the oxidative metabolism | Compound remaining (0 min = 100) (human recombinant CYP3A5; Incubation time (minutes) 0): 100 | Compound remaining (0 min = 100) (human recombinant CYP3A5; Incubation time (minutes) 5): 101 | Compound remaining (0 min = 100) (human recombinant CYP3A5; Incubation time (minutes) 15): 92.7 | Compound remaining (0 min = 100) (human recombinant CYP3A5; Incubation time (minutes) 30): 91.6 | Compound remaining (0 min = 100) (human recombinant CYP3A5; Incubation time (minutes) 45): 93.9 | Compound remaining (0 min = 100) (human recombinant CYP2C9; Incubation time (minutes) 0): 100 | Compound remaining (0 min = 100) (human recombinant CYP2C9; Incubation time (minutes) 5): 102 | Compound remaining (0 min = 100) (human recombinant CYP2C9; Incubation time (minutes) 15): 100 | Compound remaining (0 min = 100) (human recombinant CYP2C9; Incubation time (minutes) 30): 103 | Compound remaining (0 min = 100) (human recombinant CYP2C9; Incubation time (minutes) 45): 111 | Compound remaining (0 min = 100) (human recombinant CYP2C8; Incubation time (minutes) 0): 100 | Compound remaining (0 min = 100) (human recombinant CYP2C8; Incubation time (minutes) 5): 99.9 | Compound remaining (0 min = 100) (human recombinant CYP2C8; Incubation time (minutes) 15): 100 | Compound remaining (0 min = 100) (human recombinant CYP2C8; Incubation time (minutes) 30): 101 | Compound remaining (0 min = 100) (human recombinant CYP2C8; Incubation time (minutes) 45): 101 | efficacy against liver stages [2]: not efficacious against liver stages | infected hepatocytes (Rep1, Rep2) ([2]; log concentration (M) -5): 0.0299 and 0.0223 | infected hepatocytes (Rep1, Rep2) ([2]; log concentration (M) -5.5): 0.0585 and 0.0696 | infected hepatocytes (Rep1, Rep2) ([2]; log concentration (M) -7): 0.3352 and 0.4993 | infected hepatocytes (Rep1, Rep2) ([2]; log concentration (M) -7.5): 0.3658 and 0.5068
